ChEMBL document CHEMBL3351909, “In vitro and in vivo characterization of a benzofuran derivative, a potential anticancer agent, as a novel Aurora B kinase inhibitor” (Eur J Med Chem, 2015)
Calls of active or inactive are those of the source. The rule behind the calls is not given here.

How the values were obtained:
Aurora kinase B [1] = target: T1, Aurora kinase B (Homo sapiens, UniProt Q96GD4); experiment: Inhibition of AURKB in human HepG2 cells assessed as reduction in Aurora B expression expression at 5 to 20 uM after 48 hrs by Western blotting analysis; type: cell-based
T1 sequence (Q96GD4 whole entry): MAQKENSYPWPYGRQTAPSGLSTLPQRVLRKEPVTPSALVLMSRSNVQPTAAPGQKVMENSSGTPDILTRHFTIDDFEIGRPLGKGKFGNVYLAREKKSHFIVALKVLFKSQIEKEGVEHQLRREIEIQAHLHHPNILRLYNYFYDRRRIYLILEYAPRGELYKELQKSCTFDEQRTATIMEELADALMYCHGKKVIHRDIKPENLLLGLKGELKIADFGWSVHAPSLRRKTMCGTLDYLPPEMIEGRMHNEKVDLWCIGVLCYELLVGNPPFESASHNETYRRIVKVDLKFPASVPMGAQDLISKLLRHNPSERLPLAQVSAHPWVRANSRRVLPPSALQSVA

[2] = Cytotoxicity against human SKOV3 cells after 96 hrs by CCK-8 assay; type: functional, cell-based; conditions: SK-OV-3, 96 h
[3] = Cytotoxicity against human SKHEP1 cells after 96 hrs by CCK-8 assay; type: functional, cell-based; conditions: SK-HEP1, 96 h
HepG2 [4] = experiment: Cell cycle arrest in human HepG2 cells assessed as reduction in G1 phase at 20 uM after 48 hrs by flow cytometry relative to control; type: functional, cell-based
HepG2 [5] = experiment: Inhibition of colony formation in human HepG2 cells after 96 hrs by crystal violet staining-based assay; type: functional, cell-based
Aurora kinase B [6] = target: T1, Aurora kinase B; experiment: Inhibition of AURKB in human HeLa cells assessed as reduction in Aurora B expression at 5 to 20 uM after 48 hrs by Western blotting analysis; type: cell-based
[7] = Antitumor activity against human QGY7401 cells xenografted in nude mouse assessed as inhibition of tumor growth at 20 mg/kg, ip qd administered for 14 days measured on day 18 relative to control; type: functional; conditions: route intraperitoneal, read-out: TGI
Aurora kinase A = Aurora kinase A (Homo sapiens, UniProt O14965); experiment: Binding affinity to AURKA (unknown origin)
Chain of Aurora kinase A (O14965 whole entry): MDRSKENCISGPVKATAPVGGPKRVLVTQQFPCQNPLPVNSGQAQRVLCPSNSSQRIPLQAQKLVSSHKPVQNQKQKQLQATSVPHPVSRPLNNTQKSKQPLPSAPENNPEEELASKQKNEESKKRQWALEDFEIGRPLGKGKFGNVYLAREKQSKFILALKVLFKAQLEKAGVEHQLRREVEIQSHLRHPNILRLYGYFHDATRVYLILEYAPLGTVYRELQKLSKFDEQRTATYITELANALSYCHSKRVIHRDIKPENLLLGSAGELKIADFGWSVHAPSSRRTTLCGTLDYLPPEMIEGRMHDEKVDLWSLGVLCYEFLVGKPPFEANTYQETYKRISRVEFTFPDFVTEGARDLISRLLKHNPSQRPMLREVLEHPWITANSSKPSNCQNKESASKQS

HepG2 [8] = experiment: Inhibition of colony formation in human HepG2 cells at 5 uM after 96 hrs by crystal violet staining-based assay; type: functional, cell-based
[9] = Antitumor activity against human QGY7401 cells xenografted in nude mouse assessed as reduction in tumor weight at 20 mg/kg, ip qd administered for 14 days measured on day 18 (reference value: 2.24 +/- 0.20 g); type: functional; conditions: route intraperitoneal
[10] = Cytotoxicity against human FOCUS cells after 96 hrs by CCK-8 assay; type: functional, cell-based
MDA-MB-231 = experiment: Cytotoxicity against human MDA-MB-231 cells after 96 hrs by CCK-8 assay; type: functional, cell-based; conditions: MDA-MB-231, 96 h
Aurora kinase B [11] = target: T1, Aurora kinase B; experiment: Inhibition of AURKB in human SW620 cells assessed as reduction in Aurora B expression expression at 5 to 20 uM after 48 hrs by Western blotting analysis; type: cell-based; conditions: SW-620
Aurora kinase B [12] = target: T1, Aurora kinase B; experiment: Inhibition of AURKB in human SW620 cells assessed as reduction in histone H3 expression at 5 to 20 uM after 48 hrs by Western blotting analysis; type: cell-based; conditions: SW-620
[13] = Cytotoxicity against human CaSki cells after 96 hrs by CCK-8 assay; type: functional, cell-based; conditions: Ca-Ski
HeLa = experiment: Inhibition of colony formation in human HeLa cells after 96 hrs by crystal violet staining-based assay; type: functional, cell-based
[14] = target: Vascular endothelial growth factor receptor 1 (Homo sapiens, UniProt P17948); experiment: Inhibition of recombinant FLT1 (unknown origin) after 60 mins by z'-lyte kinase assay
Chain of Vascular endothelial growth factor receptor 1 (P17948 whole entry): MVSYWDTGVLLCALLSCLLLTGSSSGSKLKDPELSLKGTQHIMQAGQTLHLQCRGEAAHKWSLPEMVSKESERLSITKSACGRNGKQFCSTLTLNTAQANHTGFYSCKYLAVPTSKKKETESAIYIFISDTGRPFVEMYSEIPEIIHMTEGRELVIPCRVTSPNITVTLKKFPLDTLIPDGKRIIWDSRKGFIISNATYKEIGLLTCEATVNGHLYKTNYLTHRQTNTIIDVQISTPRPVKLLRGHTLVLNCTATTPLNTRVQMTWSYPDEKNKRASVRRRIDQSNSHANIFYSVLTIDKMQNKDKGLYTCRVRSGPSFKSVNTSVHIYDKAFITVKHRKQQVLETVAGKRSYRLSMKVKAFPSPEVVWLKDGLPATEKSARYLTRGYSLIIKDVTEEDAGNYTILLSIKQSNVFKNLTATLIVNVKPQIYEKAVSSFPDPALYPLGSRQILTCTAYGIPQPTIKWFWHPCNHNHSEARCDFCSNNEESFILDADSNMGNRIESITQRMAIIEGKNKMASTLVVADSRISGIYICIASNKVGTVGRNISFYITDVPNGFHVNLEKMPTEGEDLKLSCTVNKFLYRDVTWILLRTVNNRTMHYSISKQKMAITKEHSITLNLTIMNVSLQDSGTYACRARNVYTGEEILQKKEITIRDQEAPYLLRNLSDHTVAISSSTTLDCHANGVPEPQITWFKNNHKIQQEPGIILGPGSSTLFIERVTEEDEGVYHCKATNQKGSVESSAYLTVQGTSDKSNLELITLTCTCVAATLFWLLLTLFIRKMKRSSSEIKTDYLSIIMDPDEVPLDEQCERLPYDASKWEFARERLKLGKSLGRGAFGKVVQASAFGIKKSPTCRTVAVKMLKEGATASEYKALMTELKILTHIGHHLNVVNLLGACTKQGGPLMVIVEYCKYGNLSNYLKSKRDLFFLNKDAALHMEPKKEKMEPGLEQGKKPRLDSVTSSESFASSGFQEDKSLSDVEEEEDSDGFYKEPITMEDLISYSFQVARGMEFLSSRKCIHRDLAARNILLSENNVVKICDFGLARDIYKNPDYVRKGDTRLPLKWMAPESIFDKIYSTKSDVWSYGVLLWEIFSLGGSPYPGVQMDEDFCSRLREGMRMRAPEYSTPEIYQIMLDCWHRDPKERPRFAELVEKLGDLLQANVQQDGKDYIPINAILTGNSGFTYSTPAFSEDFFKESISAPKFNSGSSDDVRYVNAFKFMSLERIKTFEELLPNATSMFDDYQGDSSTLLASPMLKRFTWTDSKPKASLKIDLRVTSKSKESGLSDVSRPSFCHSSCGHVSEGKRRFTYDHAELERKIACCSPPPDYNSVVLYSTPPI

[15] = Cytotoxicity against human HuH7 cells after 96 hrs by CCK-8 assay; type: functional, cell-based; conditions: Huh-7, 96 h
Aurora kinase B [16] = target: T1, Aurora kinase B; experiment: Inhibition of AURKB in human HeLa cells assessed as reduction in histone H3 phosphorylation at 5 to 20 uM after 48 hrs by Western blotting analysis; type: cell-based
Aurora kinase B [17] = target: T1, Aurora kinase B; experiment: Inhibition of AURKB in human HeLa cells assessed as reduction in histone H3 expression at 5 to 20 uM after 48 hrs by Western blotting analysis; type: cell-based
[18] = Cytotoxicity against human SPC-A1 cells after 96 hrs by CCK-8 assay; type: functional, cell-based; conditions: SPCA1, 96 h
Homo sapiens [19] = experiment: Inhibition of histone H3 phosphorylation in human QGY7401 cells xenografted in nude mouse at 10 to 20 mg/kg, ip qd administered for 14 days by hematoxylin and eosin staining-based microscopic analysis; type: functional, organism-based
HepG2 [20] = experiment: Cell cycle arrest in human HepG2 cells assessed as accumulation at G2/M phase at 20 uM after 48 hrs by flow cytometry relative to control; type: functional
[21] = Antitumor activity against human QGY7401 cells xenografted in nude mouse assessed as reduction in tumor weight at 10 mg/kg, ip qd administered for 14 days measured on day 18 (reference value: 2.24 +/- 0.20 g); type: functional; conditions: route intraperitoneal
Homo sapiens [22] = experiment: Inhibition of histone H3 phosphorylation in human QGY7401 cells xenografted in ip dosed nude mouse administered qd for 14 days by Hematoxylin and eosin staining-based microscopic analysis; type: functional, organism-based
[23] = target: Glycogen synthase kinase-3 beta (Homo sapiens, UniProt P49841); experiment: Inhibition of recombinant GSK-3 beta (unknown origin) after 60 mins by z'-lyte kinase assay
Chain of Glycogen synthase kinase-3 beta (P49841 whole entry): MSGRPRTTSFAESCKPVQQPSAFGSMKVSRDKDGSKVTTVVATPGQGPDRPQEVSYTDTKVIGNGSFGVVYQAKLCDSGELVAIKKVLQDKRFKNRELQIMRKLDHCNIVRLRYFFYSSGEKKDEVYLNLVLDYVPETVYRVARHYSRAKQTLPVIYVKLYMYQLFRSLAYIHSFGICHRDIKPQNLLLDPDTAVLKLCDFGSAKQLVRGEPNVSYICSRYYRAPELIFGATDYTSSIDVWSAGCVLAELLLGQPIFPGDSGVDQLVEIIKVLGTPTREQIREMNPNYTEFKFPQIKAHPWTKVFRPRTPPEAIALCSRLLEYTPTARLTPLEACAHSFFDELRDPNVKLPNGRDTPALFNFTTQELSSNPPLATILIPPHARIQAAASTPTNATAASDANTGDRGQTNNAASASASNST

Aurora kinase C = Aurora kinase C (Homo sapiens, UniProt Q9UQB9); experiment: Inhibition of recombinant AURKC (unknown origin) after 60 mins by z'-lyte kinase assay
Chain of Aurora kinase C (Q9UQB9 whole entry): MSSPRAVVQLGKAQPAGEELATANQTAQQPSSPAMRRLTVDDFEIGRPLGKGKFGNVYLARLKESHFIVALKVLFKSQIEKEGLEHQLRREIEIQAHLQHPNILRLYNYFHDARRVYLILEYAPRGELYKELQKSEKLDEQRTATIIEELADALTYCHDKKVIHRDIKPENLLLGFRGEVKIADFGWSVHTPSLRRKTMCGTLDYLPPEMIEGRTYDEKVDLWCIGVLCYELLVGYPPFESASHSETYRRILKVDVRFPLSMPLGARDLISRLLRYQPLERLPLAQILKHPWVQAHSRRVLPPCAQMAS

[24] = Cytotoxicity against human Hep3B cells after 96 hrs by CCK-8 assay; type: functional, cell-based, Hep 3B2
HepG2 [25] = experiment: Cytotoxicity against human HepG2 cells after 96 hrs by CCK-8 assay; type: functional, cell-based; conditions: HepG2, 96 h
LoVo = experiment: Cytotoxicity against human LoVo cells after 96 hrs by CCK-8 assay; type: functional, cell-based
[26] = Cytotoxicity against human PC3 cells after 96 hrs by CCK-8 assay; type: functional, cell-based; conditions: PC-3, 96 h
[27] = Antitumor activity against human QGY7401 cells xenografted in nude mouse assessed as inhibition of tumor growth at 10 mg/kg, ip qd administered for 14 days measured on day 18 relative to control; type: functional; conditions: route intraperitoneal, read-out: TGI
SW-620 = experiment: Inhibition of colony formation in human SW620 cells at 5 uM after 96 hrs by crystal violet staining-based assay; type: functional, cell-based
CNE = experiment: Cytotoxicity against human CNE cells after 96 hrs by CCK-8 assay; type: functional, cell-based
Aurora kinase B [28] = target: T1, Aurora kinase B; experiment: Inhibition of recombinant AURKB (unknown origin) after 60 mins by z'-lyte kinase assay

SMILES: O=C1/C(=C\c2ccc(O)c(O)c2)Oc2ccccc21
- inhibition (Aurora kinase B [1]): Active
- IC50 [2]: 26.1 µM
- IC50 [3]: 41.9 µM
- Activity (HepG2 [4]): Active
- inhibition (HepG2 [5]): Dose-dependent effect
- inhibition (Aurora kinase B [6]): Active
- inhibition in vivo at 20 mg/kg [7]: 48.1%
- Kd (Aurora kinase A): 12.9 µM
- inhibition (HepG2 [8]): Active
- Activity [9]: 1.44 g
- IC50 [10]: 20.7 µM
- IC50 (MDA-MB-231): > 50 µM
- inhibition (Aurora kinase B [11]): Active
- inhibition (Aurora kinase B [12]): Active
- IC50 [13]: > 50 µM
- inhibition (HeLa): Dose-dependent effect
- IC50 [14]: 3.7 µM
- IC50 [15]: 21.1 µM
- inhibition (Aurora kinase B [16]): Active
- inhibition (Aurora kinase B [17]): Active
- IC50 [18]: 20.4 µM
- inhibition (Homo sapiens [19]): Active
- Ratio (HepG2 [20]): 2
- Activity [21]: 1.71 g
- inhibition (Homo sapiens [22]): Dose-dependent effect
- IC50 [23]: 2630 nM
- IC50 (Aurora kinase C): 4.75 µM
- IC50 [24]: 28.7 µM
- IC50 (HepG2 [25]): 8.2 µM
- IC50 (LoVo): > 50 µM
- IC50 [26]: > 50 µM
- inhibition in vivo at 10 mg/kg [27]: 39.2%
- inhibition (SW-620): Active
- IC50 (CNE): 45.5 µM
- IC50 (Aurora kinase B [28]): 735 nM
